# From ChEMBL document CHEMBL2439994, “Synthesis and biological evaluation of hydrazidomycin analogues” (Bioorg Med Chem Lett, 2013)
# Columns and labels:
# [1] = Antiproliferative activity against HUVEC after 72 hrs by resazurin dye reduction assay; format: cell-based; settings: human, HUVEC cells
# HeLa = assay: Cytotoxicity against human HeLa cells after 72 hrs by methylene blue staining; format: functional
# K562 = assay: Antiproliferative activity against human K562 cells after 72 hrs by resazurin dye reduction assay; format: functional; settings: K562, 72 h
# HT-29 = assay: Antiproliferative activity against human HT-29 cells after 72 hrs by resazurin dye reduction assay; format: functional; settings: HT-29, 72 h
GI50 (K562) [µM],GI50 (HT-29) [µM],Structure (SMILES),GI50 at 72 h [1] [µM],CC50 (HeLa) [µM]
66.2,,CCCCCCCCCCCCCCNNC(=O)COC,33.6,59.6
97.3,,CCCCCCCCCCN(NC(=O)COC)C(=O)CCCCCCCCC,114,> 125
40.9,,CCCCCCCCCCCCCCN(NC(=O)COC)C(=O)OC(C)(C)C,12.2,41.9
40.6,,CCCCCCCCCCN(NC(=O)COC)C(=O)OC(C)(C)C,22.9,104
41.9,,CCCCCCCCCCCC/C=C\N(NC(C)=O)C(=O)CCCCCCCCC,39.7,83.3
28.3,,CCCCCCCCCCCC/C=C\N(NC(=O)COC)C(=O)OC(C)(C)C,15.8,85.3
> 110,,CCCCCCCCCCCCCCN(NC(=O)COC)C(=O)CCCCCCCCC,103,> 110
45,,CCCCCCCC/C=C/N(NC(=O)COC)C(=O)OC(C)(C)C,49.9,83.2
58.7,,CCCCCCCCCCCCCCN(N)C(=O)OC(C)(C)C,27.1,96.5
18.4,,CCCCCCCCCCCC/C=C\N(NC(=O)CCl)C(=O)CCCCCCCCC,57.5,104
41.4,,CCCCCCCCCCCC/C=C/N(NC(=O)COC)C(=O)OC(C)(C)C,36.1,57.7
61.3,,CCCCCCCC/C=C\N(NC(=O)COC)C(=O)OC(C)(C)C,85.5,104
> 110,,CCCCCCCCCCCC/C=C/N(NC(=O)COC)C(=O)CCCCCCCCC,46.2,> 110
167,,CCCCCCCCCCNNC(=O)COC,156,138
> 110,0.46,CCCCCCCCCCCC/C=C\N(NC(=O)COC)C(=O)CCCCCCCCC [HYDRAZIDOMYCIN A],70.7,108
